This is an account of results in US20240180920A1, “CERTAIN FASCIN BINDING COMPOUNDS FOR SPINOGENESIS” (Spinogenix, Inc., priority 2021, published 2024).

The target of assay [1] is fascin actin-binding site 2 (Homo sapiens, UniProt Q16658). To be noted: stated as known; cited from earlier work.
For assay [2], the system named is primary mouse hippocampal neurons. Kind of assay: Synaptic density (colocalized PSD95/VGlut elements per length of dendrite) in treated neurons, FIG. 1. In kind it is cell-based. The note with it: 10 μM compared with 500 nM and 50 nM, 24 hours. On the procedure: Specifically, primary mouse hippocampal neurons were treated on day 14 in culture with one of the four compounds, each at concentrations of 10 μM, 500 nM, and 50 nM, or with control (vehicle (0.1% DMSO)) for 24 hours. Following the treatments, neurons were fixed in 4% paraformaldehyde and processed for staining with phalloidin and immunolabeling with antibodies to the postsynaptic marker PSD95, and the presynaptic marker VGlut. Images were acquired using a laser scanning confocal microscope and analyzed for the number of colocalized pre and post synaptic elements per length of dendrite. Studies were performed across 3 biological preparations of primary neurons, with a minimum of 12 dendritic segments analyzed per treatment/prep. Graphing and statistical analyses of synaptic density data were performed with Prism software.

The target in the next assay is fascin (Homo sapiens, UniProt Q16658). To be noted: stated as known; cited from earlier work.

Consider `CN(C)CCCN1c2ccccc2CCc2ccccc21` [imipramine], for which, in assay [1], the “interaction with or binding to fascin” value is “known to interact with or bind fascin at actin-binding site 2”. Moreover, the “concentration dependence of activity (synaptic density)” value (from here on “concentration dependence of activity”) in assay [2] was “higher activities at the concentration of 10 μM than at lower concentrations”. Besides, the “effect on fascin's actin-bundling activity” value on fascin is “interact or inhibit fascin's actin-bundling activity”.
As to `N=C(N)NCCCCC(=O)Nc1cc(C(F)(F)F)cc(NC(=O)c2cc(C(=O)Nc3cc(C(F)(F)F)cc(NC(=O)CCCCNC(=N)N)c3O[C@@H]3CCNC3)ncn2)c1O[C@@H]1CCNC1` (racemic) [brilacidin], the “concentration dependence of activity” value in assay [2] was “higher activities at the concentration of 10 μM than at lower concentrations”.
`C/C(=N\NC(=N)N)c1cc(NC(=O)CCCCCCCCC(=O)Nc2cc(/C(C)=N/NC(=N)N)cc(/C(C)=N/NC(=N)N)c2)cc(/C(C)=N/NC(=N)N)c1` [semapimod]: the “concentration dependence of activity” value in assay [2] is on record as “higher activities at the concentration of 10 μM than at lower concentrations”.
